Earlier results as cited in patent US11166974B2, “Ophthalmic solution comprising Diquafosol” (Santen Pharmaceutical Co., Ltd., priority 2012, dated 2021).

Test system: corneal epithelium disorder of dry eye patients
Conditions: instillation of an ophthalmic solution; NPD 1

SMILES: O=c1ccn([C@@H]2O[C@H](COP(=O)([O-])OP(=O)([O-])OP(=O)([O-])OP(=O)([O-])OC[C@H]3O[C@@H](n4ccc(=O)[nH]c4=O)[C@H](O)[C@@H]3O)[C@@H](O)[C@H]2O)c(=O)[nH]1.[Na+].[Na+].[Na+].[Na+] [diquafosol tetrasodium salt]
- corneal epithelium disorder of dry eye patients: improved corneal epithelium disorder
